# Data reported in patent US8664216B2, “Spiro-5,6-dihydro-4H-2,3,5,10b-tetraaza-benzo[e]azulenes” (Hoffmann-La Roche Inc., priority 2008, dated 2014).
# Structures can show the parent of a compound that is named as a salt. Where two headings read alike, the source gives them in different places.
# Target: T1, human V1a receptor (Homo sapiens, UniProt P37288)
# T1 construct: expressed in transfected cells; host or cells: HEK293 cells, transiently transfected; membranes prepared
# Experiment: human V1a receptor binding studies (3H-Vasopressin SPA, membranes of transfected HEK293 cells)
# Experimental: The human V1a receptor was cloned by RT-PCR from total human liver RNA. The coding sequence was subcloned in an expression vector after sequencing to confirm the identity of the amplified sequence. […] Cell membranes were prepared from HEK293 cells transiently transfected with the expression vector and grown in 20 liter fermenters with the following protocol.
# 50 g of cells are resuspended in 30 ml freshly prepared ice cold Lysis buffer (50 mM HEPES, 1 mM EDTA, 10 mM MgCl2 adjusted to pH=7.4+complete cocktail of protease inhibitor (Roche Diagnostics)). Homogenized with Polytron for 1 min and sonicated on ice for 2×2 minutes at 80% intensity (Vibracell sonicator). The preparation is centrifuged 20 min at 500 g at 4° C., the pellet is discarded and the supernatant centrifuged 1 hour at 43,000 g at 4° C. (19,000 rpm). The pellet is resuspended in 12.5 ml Lysis buffer+12.5 ml Sucrose 20% and homogenized using a Polytron for 1-2 min. The protein concentration is determined by the Bradford method and aliquots are stored at −80° C. until use. For binding studies 60 mg Yttrium silicate SPA beads (Amersham) are mixed with an aliquot of membrane in binding buffer (50 mM Tris, 120 mM NaCl, 5 mM KCl, 2 mM CaCl2, 10 mM MgCl2) for 15 minutes with mixing. 50 μl of bead/membrane mixture is then added to each well of a 96 well plate, followed by 50 μl of 4 nM 3H-Vasopressin (American Radiolabeled Chemicals). For total binding measurement 100 μl of binding buffer are added to the respective wells, for non-specific binding 100 μl of […] cold vasopressin and for compound testing 100 μl of a serial dilution of each compound in 2% DMSO. The plate is incubated 1 h at room temperature, centrifuged 1 min at 1000 g and counted on a Packard Top-Count. Non-specific binding counts are subtracted from each well and data is normalized to the maximum specific binding set at 100%. To calculate an IC 50 the curve is fitted using a non-linear regression model (XLfit) and the Ki is calculated using the Cheng-Prussoff equation.
# [1] = 3H-Vasopressin displacement, HEK293 cell membranes, Ki calculated from IC50 by Cheng-Prussoff equation, read-out: pKi hV1a (converted)
# T1 sequence (P37288 whole entry): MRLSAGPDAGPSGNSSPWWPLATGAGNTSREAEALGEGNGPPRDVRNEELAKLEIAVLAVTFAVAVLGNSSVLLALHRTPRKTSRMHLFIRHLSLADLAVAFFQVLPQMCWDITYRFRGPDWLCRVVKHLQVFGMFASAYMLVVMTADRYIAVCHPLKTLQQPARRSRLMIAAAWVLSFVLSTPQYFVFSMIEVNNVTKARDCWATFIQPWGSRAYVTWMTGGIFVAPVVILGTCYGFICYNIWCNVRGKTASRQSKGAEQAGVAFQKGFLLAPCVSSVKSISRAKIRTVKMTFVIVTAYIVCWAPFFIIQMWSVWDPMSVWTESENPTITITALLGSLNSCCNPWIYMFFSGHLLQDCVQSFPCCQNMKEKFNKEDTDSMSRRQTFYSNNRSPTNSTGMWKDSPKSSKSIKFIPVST
Structure (SMILES),Ki [1],Ki
"CC1OC2(CCN(c3nnc4n3-c3ccc(Cl)cc3CN(C(=O)OC(C)(C)C)C4)CC2)c2ccccc21 (racemic) [Example 24, (RS)-tert-Butyl 8-chloro-1-(3-methyl-1′H,3H-spiro[2-benzofuran-1,4′-piperidin]-1′-yl)-4H-[1,2,4]triazolo[4,3-a][1,4]benzodiazepine-5(6H)-carboxylate]",10.7 nM,–
"CC1OC2(CCN(c3nnc4n3-c3ccc(Cl)cc3CN(C)C4)CC2)c2ccccc21 (racemic) [Example 26, (RS)-8-Chloro-5-methyl-1-(3-methyl-1′H,3H-spiro[2-benzofuran-1,4′-piperidin]-1′-yl)-5,6-dihydro-4H-[1,2,4]triazolo[4,3-a][1,4]benzodiazepine]",4.79 nM,–
"CC(C)(C)OC(=O)N1Cc2cc(Cl)ccc2-n2c(nnc2[C@H]2CC[C@@]3(CC2)OCc2ccccc23)C1 [Example 1, tert-Butyl 8-chloro-1-[(1r,4′r)-3H-spiro[2-benzofuran-1,1′-cyclohexan]-4′-yl]-4H-[1,2,4]triazolo[4,3-a][1,4]benzodiazepine-5(6H)-carboxylate]",–,4.57 nM
"Clc1ccc2c(c1)CNCc1nnc([C@H]3CC[C@@]4(CC3)OCc3ccccc34)n1-2 [Example 2, 8-Chloro-1-[(1r,4′r)-3H-spiro[2-benzofuran-1,1′-cyclohexan]-4′-yl]-5,6-dihydro-4H-[1,2,4]triazolo[4,3-a][1,4]benzodiazepine hydrochloride]",–,39.8 nM
"CN1Cc2cc(Cl)ccc2-n2c(nnc2[C@H]2CC[C@@]3(CC2)OCc2ccccc23)C1 [Example 3, 8-Chloro-5-methyl-1-[(1r,4′r)-3H-spiro[2-benzofuran-1,1′-cyclohexan]-4′-yl]-5,6-dihydro-4H-[1,2,4]triazolo[4,3-a][1,4]benzodiazepine]",–,2.82 nM
"Clc1ccc2c(c1)CNCc1nnc([C@H]3CC[C@]4(CC3)OCc3ccccc34)n1-2 [Example 5, 8-Chloro-1-[(1s,4′s)-3H-spiro[2-benzofuran-1,1′-cyclohexan]-4′-yl]-5,6-dihydro-4H-[1,2,4]triazolo[4,3-a][1,4]benzodiazepine hydrochloride]",–,16.2 nM
"CC(C)(C)OC(=O)N1Cc2cc(Cl)ccc2-n2c(nnc2N2CCC3(CC2)OCc2ccccc23)C1 [Example 7, tert-Butyl 8-chloro-1-(1′H,3H-spiro[2-benzofuran-1,4′-piperidin]-1′-yl)-4H-[1,2,4]triazolo[4,3-a][1,4]benzodiazepine-5(6H)-carboxylate]",4.47 nM,–
"CN1Cc2cc(Cl)ccc2-n2c(nnc2N2CCC3(CC2)OCc2ccccc23)C1 [Example 9, 8-Chloro-5-methyl-1-(1′H,3H-spiro[2-benzofuran-1,4′-piperidin]-1′-yl)-5,6-dihydro-4H-[1,2,4]triazolo[4,3-a][1,4]benzodiazepine]",–,2.4 nM
"CC(C)N1Cc2cc(Cl)ccc2-n2c(nnc2N2CCC3(CC2)OCc2ccccc23)C1 [Example 10, 8-Chloro-5-isopropyl-1-(1′H,3H-spiro[2-benzofuran-1,4′-piperidin]-1′-yl)-5,6-dihydro-4H-[1,2,4]triazolo[4,3-a][1,4]benzodiazepine]",1.82 nM,–
"Clc1ccc2c(c1)CN(Cc1ccccn1)Cc1nnc(N3CCC4(CC3)OCc3ccccc34)n1-2 [Example 12, 8-Chloro-5-(pyridin-2-ylmethyl)-1-(1′H,3H-spiro[2-benzofuran-1,4′-piperidin]-1′-yl)-5,6-dihydro-4H-[1,2,4]triazolo[4,3-a][1,4]benzodiazepine]",–,1.82 nM
CC(=O)N1Cc2cc(Cl)ccc2-n2c(nnc2N2CCC3(CC2)OCc2ccccc23)C1 [Example 15],4.17 nM,–
"CN(C)CC(=O)N1Cc2cc(Cl)ccc2-n2c(nnc2N2CCC3(CC2)OCc2ccccc23)C1 [Example 16, 2-[8-Chloro-1-(1′H,3H-spiro[2-benzofuran-1,4′-piperidin]-1′-yl)-4H-[1,2,4]triazolo[4,3-a][1,4]benzodiazepin-5(6H)-yl]-N,N-dimethyl-2-oxoethanamine]",6.76 nM,–
"CC(C)(C)OC(=O)N1Cc2cc(Cl)ccc2-n2c(nnc2N2CCC3(CC2)OCc2ccc(F)cc23)C1 [Example 17, tert-Butyl 8-chloro-1-(6-fluoro-1′H,3H-spiro[2-benzofuran-1,4′-piperidin]-1′-yl)-4H-[1,2,4]triazolo[4,3-a][1,4]benzodiazepine-5(6H)-carboxylate]",10.2 nM,–
"CN1Cc2cc(Cl)ccc2-n2c(nnc2N2CCC3(CC2)OCc2ccc(F)cc23)C1 [Example 19, 8-Chloro-1-(6-fluoro-1′H,3H-spiro[2-benzofuran-1,4′-piperidin]-1′-yl)-5-methyl-5,6-dihydro-4H-[1,2,4]triazolo[4,3-a][1,4]benzodiazepine]",7.59 nM,–
"CN1Cc2cc(Cl)ccc2-n2c(nnc2N2CCC3(CC2)OCc2cccc(F)c23)C1 [Example 22, 8-Chloro-1-(7-fluoro-1′H,3H-spiro[2-benzofuran-1,4′-piperidin]-1′-yl)-5-methyl-5,6-dihydro-4H-[1,2,4]triazolo[4,3-a][1,4]benzodiazepine]",3.98 nM,–
"CN1Cc2cc(Cl)ccc2-n2c(nnc2N2CCC3(CC2)OCc2cc(F)ccc23)C1 [Example 23, 8-Chloro-1-(5-fluoro-1′H,3H-spiro[2-benzofuran-1,4′-piperidin]-1′-yl)-5-methyl-5,6-dihydro-4H-[1,2,4]triazolo[4,3-a][1,4]benzodiazepine]",2.09 nM,–
"CN1Cc2cc(Cl)ccc2-n2c(nnc2N2CCC3(CC2)OC(=O)c2ccccc23)C1 [Example 27, 1′-(8-Chloro-5-methyl-5,6-dihydro-4H-[1,2,4]triazolo[4,3-a][1,4]benzodiazepin-1-yl)-3H-spiro[2-benzofuran-1,4′-piperidin]-3-one]",–,12.3 nM
CN1Cc2cc(Cl)ccc2-n2c(nnc2N2CCC3(CC2)SCc2ccccc23)C1 [Example 29],–,1.74 nM
"CN1Cc2cc(Cl)ccc2-n2c(nnc2N2CCC3(CC2)c2ccccc2CS3(=O)=O)C1 [Example 31, 8-Chloro-1-(2,2-dioxido-1′H,3H-spiro[2-benzothiophene-1,4′-piperidin]-1′-yl)-5-methyl-5,6-dihydro-4H-[1,2,4]triazolo[4,3-a][1,4]benzodiazepine]",–,47.9 nM
"CN1Cc2cc(Cl)ccc2-n2c(nnc2N2CCC3(CC2)COCc2ccccc23)C1 [Example 32, 1′-(8-Chloro-5-methyl-5,6-dihydro-4H-[1,2,4]triazolo[4,3-a][1,4]benzodiazepin-1-yl)-1H-spiro[isochromene-4,4′-piperidine]]",–,2.19 nM
"CN1Cc2cc(Cl)ccc2-n2c(nnc2N2CCC3(CC2)OCCc2ccccc23)C1 [Example 35, 1′-(8-Chloro-5-methyl-5,6-dihydro-4H-[1,2,4]triazolo[4,3-a][1,4]benzodiazepin-1-yl)-3,4-dihydrospiro[isochromene-1,4′-piperidine]]",–,10.5 nM
"CN1Cc2cc(Cl)ccc2-n2c(nnc2N2CCC[C@@]3(CC2)OCc2ccccc23)C1 [Example 36, (+)-1-(8-Chloro-5-methyl-5,6-dihydro-4H-[1,2,4]triazolo[4,3-a][1,4]benzodiazepin-1-yl)-3′H-spiro[azepane-4,1′-[2]benzofuran]]",1.45 nM,–
"CN1Cc2cc(Cl)ccc2-n2c(nnc2N2CCC[C@]3(CC2)OCc2ccccc23)C1 [Example 37, (−)-1-(8-Chloro-5-methyl-5,6-dihydro-4H-[1,2,4]triazolo[4,3-a][1,4]benzodiazepin-1-yl)-3′H-spiro[azepane-4,1′-[2]benzofuran]]",5.01 nM,–
